From patent publication US20250034135A1, “ANTI-APOPTOTIC PROTEIN BCL-2 INHIBITOR, PHARMACEUTICAL COMPOSITION AND USES THEREOF” (HANGZHOU HEALZEN THERAPEUTICS CO., LTD., priority 2021, published 2025)
Read-outs that look alike come from different tables or passages of the source.

Experiments:
BCL2 (G101V) = BCL2 (G101V) (Homo sapiens (Human), UniProt P10415, G101V); experiment: Molecular level activity test of anti-apoptotic protein BCL2 (G101V) (HTRF, binding to Bim peptide); conditions: inhibition of BCL2 (G101V) binding to Bim peptide, read-out: BCL-2 (G101V)
Protocol: (§1) The detection of the binding ability between anti-apoptotic protein BCL2 (G101V) and pro-apoptotic protein Bim was performed using Homogeneous Time-Resolved Fluorescence technology. The reaction of this method occurred in a white shallow 384-well plate, with a total reaction volume of 10 μL. Specifically, it included 2 μL of the compound to be tested (2% DMSO), 4 μL His-tagged recombinant protein, and 4 μL Biotin-tagged BIM protein peptide. After 1 hour of reaction, 5 L of each Anti-His and streptavidin-tagged XL665 antibody diluents diluted with a detection buffer were added. After incubating at room temperature for 4 hours, the values were read using the Envision multifunctional microplate reader to detect the effect of the compound to be tested on the binding ability of BCL2 (G101V) to BIM protein peptides.

BCL-XL = BCL-XL (Homo sapiens (Human), UniProt Q07817); experiment: BCL-XL enzyme molecular level activity test (HTRF, binding to BIM peptide); conditions: binding of BCL-XL to BIM peptide, read-out: BCL-XL inhibitory activity (IC50)
Protocol: In a white shallow 384-well plate, a total reaction volume was 10 μL. Specifically, it included 2 μL of the compound to be tested (2% DMSO), […] His-tagged recombinant protein, and 4 μL Biotin-tagged BIM protein peptide. After 1 hour of reaction, 5 μL of each Anti-His and streptavidin-tagged XL665 antibody diluents diluted with a detection buffer were added. After incubating at room temperature for 4 hours, the values were read using the Envision multifunctional microplate reader to detect the effect of the compound to be tested on the binding ability of BCL-XL to BIM protein peptides. The Envision parameter settings were exciting light at 320 nm, and emitting light at 615 nm and 665 nm. The binding ability of anti-apoptotic proteins to Bim protein peptides was indirectly reflected by the signal ratio of 665 nm and 615 nm. In the reaction, background wells without BCL2 and active wells for full binding of recombinant proteins without compounds and Bim protein peptides were set up.

BCL2 = BCL2 (Homo sapiens (Human), UniProt P10415); experiment: Molecular level activity test of anti-apoptotic protein BCL2 (HTRF, binding to Bim peptide); conditions: HTRF, binding of BCL2 to Bim peptide; read-out: BCL2 nM (inhibitory activity, IC50)
How it was run: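 Competition binding format: recombinant His-BCL2 and a biotin-Bim peptide are incubated with compound for 1 h, followed by 4 h at room temperature with HTRF detection antibodies.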

RS4; 11 cells = experiment: Tumor proliferation inhibitory activity test (MTS) on RS4; 11; assay type: cell-based; conditions: Homo sapiens, RS4-11, 72 h, 3 days incubation
Protocol: The cell proliferation inhibitory ability of the compounds on RS4; 11 was tested using the MTS method. MTS is a tetrazolium blue salt compound that can be reduced by various dehydrogenases in live cell mitochondria to their respective colored methylzan products. Its color depth is highly correlated with the number of live cells in certain sensitive cell lines within a certain range. RS4; 11, RS4; 11 (BCL-2-G101V) and MOLT-4 tumor cells were cultivated separately and collected, 180 μL of cell suspension was added to each well in a 96-well cell plate, 20 μL of DMSO with a final concentration of 0.2% was added to the control cell wells, 20 μL of gradient diluted compounds were added to cell wells, and the treated cells were incubated in a 5% CO2 incubator at 37° C. for 3 days. After the incubation was completed, the reaction solution was prepared according to the MTS reagent kit, 20 μL was added per well and incubated in a 5% CO2 incubator at 37° C. for 3-4 hours. The absorbance value at 490 nm was read using an enzyme-linked immunosorbent assay (ELISA) plate, and the absorbance value at 690 nm was used as the background value, with OD490 nm-OD690 nm as the final raw data. The formula for calculating the inhibition ratio of compounds was as follows: inhibition ratio=(ODDMSO−ODCompound)/(ODDMSO−ODblank)×100%.

BCL2 (D103Y) = BCL2 (D103Y) (Homo sapiens (Human), UniProt P10415, D103Y); experiment: Molecular level activity test of BCL2 (D103Y) (HTRF, binding to Bim peptide); conditions: read-out: BCL-2 (D103Y) (nM) (inhibitory activity, IC50)
Protocol: as §1, with “BCL2 (D103Y)” for “BCL2 (G101V)”, “5 μL” for “5 L”

Chain of BCL-XL (Q07817 whole entry): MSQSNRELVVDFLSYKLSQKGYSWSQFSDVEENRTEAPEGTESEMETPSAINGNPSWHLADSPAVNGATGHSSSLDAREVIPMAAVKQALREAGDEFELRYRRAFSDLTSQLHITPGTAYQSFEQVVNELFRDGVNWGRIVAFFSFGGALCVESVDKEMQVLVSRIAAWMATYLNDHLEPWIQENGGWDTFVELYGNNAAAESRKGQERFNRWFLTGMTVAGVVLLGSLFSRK

IC50 (BCL2 (G101V)) [nM] | IC50 (BCL-XL; values given in μM) [µM] | IC50 (BCL2) [nM] | IC50 (RS4; 11 cells) [nM] | IC50 (BCL2 (D103Y)) [nM] | IC50 (BCL-XL; values in nM) [µM] | SMILES
< 10 | > 1 | < 10 | < 0.5 | < 10 | – | COc1ccc(CN2CCN(C3CC4(CCN(c5ccc(C(=O)NS(=O)(=O)c6cc([N+](=O)[O-])c(NCC7CCOCC7)c7c6OCO7)c(Oc6cnc7[nH]ccc7c6)c5)CC4)C3)[C@H](c3ccccc3C(C)C)C2)cc1 [compound 145, (R)-2-((1H-pyrrolo[2,3-b]pyrid-5-yl)oxy)-4-(2-(2-(2-isopropylphenyl)-4-(4-methoxybenzyl)piperazin-1-yl)-7-azaspiro[3.5]non-7-yl)-N-((6-nitro-7-(((tetrahydro-2H-pyran-4-yl)methyl)amino)benzo[d][1,3]dioxocyclopent-4-yl)sulfonyl)benzamide]
< 10 | – | < 10 | 0.5 to 1 | < 10 | > 0.5 | COc1ccc(CN2CCN(C3CC4(CCN(c5cc(Oc6cnc7[nH]ccc7c6)c(C(=O)NS(=O)(=O)c6ccc(NC[C@H]7CC[C@](C)(O)CC7)c([N+](=O)[O-])c6)cc5F)CC4)C3)[C@H](c3ccccc3C(C)C)C2)cc1OC [compound 237, 2-((1H-pyrrolo[2,3-b]pyrid-5-yl)oxy)-4-(2-((R)-4-(3,4-dimethoxybenzyl)-2-(2-isopropylphenyl)piperazin-1-yl)-7-azaspiro[3.5]non-7-yl)-5-fluoro-N-((4-((((1r, 4r)-4-hydroxy-4-methylcyclohexyl)methyl)amino)-3-nitrophenyl)sulfonyl)benzamide]
< 10 | – | < 10 | 0.5 to 1 | < 10 | > 0.5 | CNCc1ccc(CN2CCN(C3CC4(CCN(c5cc(Oc6cnc7[nH]ccc7c6)c(C(=O)NS(=O)(=O)c6ccc(NCC7(F)CCOCC7)c([N+](=O)[O-])c6)cc5F)CC4)C3)[C@H](c3ccccc3C(C)C)C2)cc1OC [compound 246, (R)-2-((1H-pyrrolo[2,3-b]pyrid-5-yl)oxy)-5-fluoro-N-((4-(((4-fluorotetrahydro-2H-pyran-4-yl)methyl)amino)-3-nitrophenyl)sulfonyl)-4-(2-(2-(2-isopropylphenyl)-4-(3-methoxy-4-((methylamino)methyl)benzyl)piperazin-1-yl)-7-azaspiro[3.5]non-7-yl)benzamide]
– | – | – | 0.5 to 1 | – | – | CC(C)c1ccccc1[C@@H]1CN(Cc2cnn(C)c2)CCN1C1CC2(CCN(c3cc(Oc4cnc5[nH]ccc5c4)c(C(=O)NS(=O)(=O)c4ccc(NC[C@H]5CC[C@](C)(O)CC5)c([N+](=O)[O-])c4)cc3F)CC2)C1 [compound 238, 2-((1H-pyrrolo[2,3-b]pyrid-5-yl)oxy)-5-fluoro-N-((4-((((1r, 4r)-4-hydroxy-4-methylcyclohexyl)methyl)amino)-3-nitrophenyl)sulfonyl)-4-(2-((R)-2-(2-isopropylphenyl)-4-((1-methyl-1H-pyrazole-4-yl)methyl)piperazin-1-yl)-7-azaspiro[3.5]non-7-yl)benzamide]
< 10 | – | < 10 | – | – | > 0.5 | COc1cccc(CN2CCN(C3CC4(CCN(c5cc(Oc6cnc7[nH]ccc7c6)c(C(=O)NS(=O)(=O)c6ccc(NCC7(F)CCOCC7)c([N+](=O)[O-])c6)cc5F)CC4)C3)[C@H](c3ccccc3C(C)C)C2)c1 [compound 184, (R)-2-((1H-pyrrolo[2,3-b]pyrid-5-yl)oxy)-5-fluoro-N-((4-(((4-fluorotetrahydro-2H-pyran-4-yl)methyl)amino)-3-nitrophenyl)sulfonyl)-4-(2-(2-(2-isopropylphenyl)-4-(3-methoxybenzyl)piperazin-1-yl)-7-azaspiro[3.5]non-7-yl)benzamide]
< 10 | – | < 10 | – | – | > 0.5 | CC(C)c1ccccc1[C@@H]1CN(Cc2ccc(F)cc2)CCN1C1CC2(CCN(c3cc(Oc4cnc5[nH]ccc5c4)c(C(=O)NS(=O)(=O)c4ccc(NCC5(F)CCOCC5)c([N+](=O)[O-])c4)cc3F)CC2)C1 [compound 186, (R)-2-((1H-pyrrolo[2,3-b]pyrid-5-yl)oxy)-5-fluoro-4-(2-(4-(4-fluorobenzyl)-2-(2-isopropylphenyl)piperazin-1-yl)-7-azaspiro[3.5]non-7-yl)-N-((4-(((4-fluorotetrahydro-2H-pyran-4-yl)methyl)amino)-3-nitrophenyl)sulfonyl)benzamide]
< 10 | > 1 | < 10 | – | – | – | COc1ccc(CN2CCN(C3CC4(CCN(c5cc(Oc6cnc7[nH]cc(F)c7c6)c(C(=O)NS(=O)(=O)c6ccc(NCC7(F)CCN(C(C)C)CC7)c([N+](=O)[O-])c6)cc5F)CC4)C3)C(c3ccccc3C(C)C)C2)cc1 (centres unmarked) [compound 062]
< 10 | – | < 10 | – | – | > 0.5 | COc1cc(CN2CCN(C3CC4(CCN(c5cc(Oc6cnc7[nH]ccc7c6)c(C(=O)NS(=O)(=O)c6ccc(NCC7(F)CCOCC7)c([N+](=O)[O-])c6)cc5F)CC4)C3)[C@H](c3ccccc3C(C)C)C2)ccc1C1CC1 [compound 196, (R)-2-((1H-pyrrolo[2,3-b]pyrid-5-yl)oxy)-4-(2-(4-(4-cyclopropyl-3-methoxybenzyl)-2-(2-isopropylphenyl)piperazin-1-yl)-7-azaspiro[3.5]non-7-yl)-5-fluoro-N-((4-(((4-fluorotetrahydro-2H-pyran-4-yl)methyl)amino)-3-nitrophenyl)sulfonyl)benzamide]
< 10 | – | < 10 | – | – | > 0.5 | CC(C)c1ccccc1[C@@H]1CN(Cc2ccc3c(c2)OCO3)CCN1C1CC2(CCN(c3cc(Oc4cnc5[nH]ccc5c4)c(C(=O)NS(=O)(=O)c4ccc(NCC5(F)CCOCC5)c([N+](=O)[O-])c4)cc3F)CC2)C1 [compound 203, (R)-2-((1H-pyrrolo[2,3-b]pyrid-5-yl)oxy)-4-(2-(4-(benzo[d][1,3]dioxocyclopent-5-ylmethyl)-2-(2-isopropylphenyl)piperazin-1-yl)-7-azaspiro[3.5]non-7-yl)-5-fluoro-N-((4-(((4-fluorotetrahydro-2H-pyran-4-yl)methyl)amino)-3-nitrophenyl)sulfonyl)benzamide]
< 10 | – | < 10 | 0.5 to 1 | < 10 | – | COc1ccc(CN2CCN(C3CC4(CCN(c5cc(Oc6cnc7[nH]cc(F)c7c6)c(C(=O)NS(=O)(=O)c6ccc(NC[C@H]7CC[C@](C)(O)CC7)c([N+](=O)[O-])c6)cc5F)CC4)C3)[C@H](c3ccccc3C(C)C)C2)cc1 [compound 235, 5-fluoro-2-((3-fluoro-1H-pyrrolo[2,3-b]pyrid-5-yl)oxy)-N-((4-((((1r, 4r)-4-hydroxy-4-methylcyclohexyl)methyl)amino)-3-nitrophenyl)sulfonyl)-4-(2-((R)-2-(2-isopropylphenyl)-4-(4-methoxybenzyl)piperazin-1-yl)-7-azaspiro[3.5]non-7-yl)benzamide]
